Values quoted from earlier work in patent US11992479B2, “R-fadrozole for use in the treatment of aldostonerism” (priority 2018, dated 2024).
Where a name gives a salt, the structure may show the parent alone.

How the values were obtained:
basal plasma aldosterone = settings: twice daily, healthy male subjects; cited from earlier work
DOC = settings: PA patients, cited from earlier work
[1] = phase I study; cited from earlier work
plasma aldosterone = settings: 0.5 and 1.0 mg twice a day, PA patients; cited from earlier work

N#Cc1ccc(C2CCCc3cncn32)cc1 (racemic) [Fadrozole hydrochloride]
effect on basal plasma aldosterone levels (basal plasma aldosterone): only modestly affect basal plasma aldosterone levels | effect on serum potassium (basal plasma aldosterone): without significantly elevating serum potassium

N#Cc1ccc([C@H]2CCc3cncn32)c(F)c1 [LCI699]
DOC mean level (DOC; 1.0 mg twice-daily dose): 9.8 ng/mL | increase of DOC (DOC; twice-daily dosing): over 700% | elimination half-life [1]: approximately 4 hours | time to peak concentration [1]: 1 h | decrease of plasma aldosterone (plasma aldosterone): 70-80%
